This series relates to newborn Swiss mice. Kind of series: Experiment II: carcinogenicity in newborn mice, chrysene, 7-methylbenz(a)anthracene and K region epoxides (s.c. injection, tumour incidence to 70-75 weeks). Conditions: for effect on the incidence of liver, lung or other tumours: in the doses tested (3 x 100 µg or 1 x 60 µg). The text has this: Br. J. Cancer (1975) 31, 182 THE CARCINOGENICITY OF POLYCYCLIC HYDROCARBON EPOXIDES IN NEWBORN MICE P. L. GROVER, P. SIMS, B. C. V. MITCHLEY AND F. J. C. ROE From the Chester Beatty Research Institute, Institute of Cancer Research, Royal Cancer Hospital, Fulham Road, London, SW3 6JB Received 9 August 1974. […] THE HYPOTHESIS that the carcino- genicity of polycyclic hydrocarbons is associated with the formation of epoxide metabolites (Grover, Hewer and Sims, 1971, 1972; Keysell et al., 1973) is sup- ported by some experimental evidence but remains unproven. […] The epoxides can also act as alkylating agents (Grover and Sims, 1970) and as mutagens (Ames, Sims and Grover, 1972; Huberman et al., 1971; Cookson, Sims and Grover, 1971; Fahmy and Fahmy, 1973). […] The newborn mouse, which is susceptible to carcinogenic polycyclic hydrocarbons (Roe, Rowson and Salaman, 1961; Roe, Mitchley and Walters, 1963; Walters and Roe, 1964, 1966) can be considered as a convenient source of several types of rapidly dividing cells. Consequently we have tested the K region epoxides derived from phenanthrene, benz(a)anthracene, 7-methylbenz(a)anthracene, dibenz(a,h)- anthracene, chrysene and 3-methylchol- anthrene, together with some of the CARCINOGENICITY OF POLYCYCLIC HYDROCARBON EPOXIDES IN MICE 183 parent hydrocarbons, for carcinogenicity using newborn mice. This paper presents the results that were obtained in these experiments. MATERIALS AND METHODS The polycyclic hydrocarbon epoxides, phenanthrene 9,10-oxide, benz(a)anthracene 5,6-oxide, 7-methylbenz(a)anthracene 5,6- oxide, dibenz(a,h)anthracene 5,6-oxide, chry- sene 5,6-oxide and 3-methylcholanthrene 11,12-oxide were prepared from the parent hydrocarbons (Newman and Blum, 1964; Boyland and Sims, 1965; Sims 1966). Two experiments were undertaken fol- lowing similar protocols. For each experi- ment Swiss mice from a specific pathogen- free colony were time mated so as to produce a large number of litters over the course of 2 or 3 days. […] Test compounds were suspended in poly- ethylene glycol (PEG) 400 and injections of 0-02 ml of the suspension were given by introducing a 25 gauge hypodermic needle through the skin near the root of the tail and threading it subcutaneously to deliver the injected material in the interscapular region. Injections were given to every mouse on the first day or first 3 days of life. The details of treatments and numbers of mice of each sex in each group are shown in Table I (Experiment I) and Table II (Ex- periment II). Surviving mice were weaned when they w ere 21 days old. Thereafter, males and females w ere separated and housed 6 per cage in metal boxes. A mixture of sawdust and wood shavings was used as bedding. The mice were fed on a standard cubed diet (Formulation 86 from C. Holdman and Sons (Plow co Feeds), Byers Lane, South Godstone, Surrey) and water was given ad libitum. Mice were inspected daily, and at weekly intervals they were weighed and palpated for tumours and other lesions. […] The experiment was terminated when surviving mice were between 70 and 75 weeks old. A full routine post- mortem examination, which included disten- sion of the urinary bladder with fixative, was carried out. The number of lesions thought to be neoplasms and the size of the largest such lesion in each organ affected were recorded. All tissues with suspected neoplasms were fixed in Bouin's solution. Haematoxylin and eosin stained 5 µm paraffin wax sections were prepared and examined microscopically. RESULTS The results of the two experiments in terms of tumour incidence are sum- marized in […].

Where [1] appears, read: females, 100 µg per treatment, 3 treatments.
[2] abbreviates: females, 100 µg per treatment, 3 treatments (Days 0, 1 and 2) s.c. in PEG 400.
Where [3] appears, read: males, 100 µg per treatment, 3 treatments.
Where [4] appears, read: males, 100 µg per treatment, 3 treatments (Days 0, 1 and 2) s.c. in PEG 400.
The mark [5] stands for this setting: females, 60 µg, 1 treatment (Day 0 only) s.c. in PEG 400.
[6] abbreviates: males, 60 µg, 1 treatment (Day 0 only) s.c. in PEG 400.

As to `c1ccc2c(c1)ccc1c3ccccc3ccc21` [Chrysene, reference compound], where the note is “3 x 100 µg s.c., newborn”, the liver tumour incidence result is “increased”. In addition, under setting [1], the “No. of mice examined at p.m. at termination of experiment (70-75th week) with liver tumours” value is listed as 0, the “No. of mice examined at p.m. at termination of experiment (70-75th week) with lung tumours” value was 0, the “No. of mice examined at p.m. at termination of experiment (70-75th week) with multiple liver tumours” value turned out to be 0 and the “No. of mice examined at p.m. at termination of experiment (70-75th week) with multiple lung tumours” value worked out at 0. Under setting [1], the “No. of mice examined at p.m. at termination of experiment (70-75th week) with other tumours” value is 0, the “No. of mice examined at p.m. from 50-70th week with liver tumours” value was 0, the “No. of mice examined at p.m. from 50-70th week with lung tumours” value was 0 and the “No. of mice examined at p.m. from 50-70th week with other tumours” value is given as 0. Moreover, under setting [2], the “No. of survivors at 50 weeks” value is listed as 22 and the “No. of survivors at 70 weeks” value turned out to be 21. Besides, under setting [3], the “No. of mice examined at p.m. at termination of experiment (70-75th week) with liver tumours” value was 13, the “No. of mice examined at p.m. at termination of experiment (70-75th week) with lung tumours” value is 1, the “No. of mice examined at p.m. at termination of experiment (70-75th week) with multiple liver tumours” value was 6 and the “No. of mice examined at p.m. at termination of experiment (70-75th week) with multiple lung tumours” value is reported as 1. In addition, under setting [3], the “No. of mice examined at p.m. at termination of experiment (70-75th week) with other tumours” value was 0, the “No. of mice examined at p.m. from 50-70th week with liver tumours” value came to 0, the “No. of mice examined at p.m. from 50-70th week with lung tumours” value turned out to be 0 and the “No. of mice examined at p.m. from 50-70th week with other tumours” value is given as 0. Under setting [4], the “No. of survivors at 50 weeks” value worked out at 28 and the “No. of survivors at 70 weeks” value turned out to be 27.

As for `c1ccc2c(c1)-c1cc3ccc4ccccc4c3cc1C1OC21` (stereo not drawn) [Dibenz(a,h)anthracene 5,6-oxide], the “effect on the incidence of liver, lung or other tumours” value is reported as “without apparent effect”. For the same compound, under “females, 60 µg, 1 treatment”, the “No. of mice examined at p.m. at termination of experiment (70-75th week) with liver tumours” value is reported as 0, the “No. of mice examined at p.m. at termination of experiment (70-75th week) with lung tumours” value is 1, the “No. of mice examined at p.m. at termination of experiment (70-75th week) with multiple liver tumours” value was 0 and the “No. of mice examined at p.m. at termination of experiment (70-75th week) with multiple lung tumours” value was determined as 0. For the same compound, for the setting “females, 60 µg, 1 treatment”, the “No. of mice examined at p.m. at termination of experiment (70-75th week) with other tumours” value turned out to be 1, the “No. of mice examined at p.m. from 50-70th week with liver tumours” value worked out at 0, the “No. of mice examined at p.m. from 50-70th week with lung tumours” value is 0 and the “No. of mice examined at p.m. from 50-70th week with other tumours” value is 0. Under setting [5], the “No. of survivors at 50 weeks” value is 20 and the “No. of survivors at 70 weeks” value was 19. Further, for the setting “males, 60 µg, 1 treatment”, the “No. of mice examined at p.m. at termination of experiment (70-75th week) with liver tumours” value is reported as 2, the “No. of mice examined at p.m. at termination of experiment (70-75th week) with lung tumours” value is reported as 0, the “No. of mice examined at p.m. at termination of experiment (70-75th week) with multiple liver tumours” value was determined as 1 and the “No. of mice examined at p.m. at termination of experiment (70-75th week) with multiple lung tumours” value is reported as 0. Also, where the note is “males, 60 µg, 1 treatment”, the “No. of mice examined at p.m. at termination of experiment (70-75th week) with other tumours” value is recorded as 0, the “No. of mice examined at p.m. from 50-70th week with liver tumours” value came out at 0, the “No. of mice examined at p.m. from 50-70th week with lung tumours” value is 0 and the “No. of mice examined at p.m. from 50-70th week with other tumours” value was determined as 0. Under setting [6], the “No. of survivors at 50 weeks” value is 19 and the “No. of survivors at 70 weeks” value came to 16.

On to `c1ccc2c(c1)-c1ccccc1C1OC21` (stereo not drawn) [phenanthrene 9,10-oxide], for which the “effect on the incidence of liver, lung or other tumours” value is listed as “no effect”. Under setting [1], the “No. of mice examined at p.m. at termination of experiment (70-75th week) with liver tumours” value is 2, the “No. of mice examined at p.m. at termination of experiment (70-75th week) with lung tumours” value was 0, the “No. of mice examined at p.m. at termination of experiment (70-75th week) with multiple liver tumours” value is given as 1 and the “No. of mice examined at p.m. at termination of experiment (70-75th week) with multiple lung tumours” value amounted to 0. For the same compound, under setting [1], the “No. of mice examined at p.m. at termination of experiment (70-75th week) with other tumours” value is reported as 0, the “No. of mice examined at p.m. from 50-70th week with liver tumours” value is 0, the “No. of mice examined at p.m. from 50-70th week with lung tumours” value was determined as 0 and the “No. of mice examined at p.m. from 50-70th week with other tumours” value is listed as 0. Moreover, under setting [2], the “No. of survivors at 50 weeks” value is recorded as 13 and the “No. of survivors at 70 weeks” value was 13. Further, under setting [3], the “No. of mice examined at p.m. at termination of experiment (70-75th week) with liver tumours” value worked out at 4, the “No. of mice examined at p.m. at termination of experiment (70-75th week) with lung tumours” value came out at 2, the “No. of mice examined at p.m. at termination of experiment (70-75th week) with multiple liver tumours” value came to 1 and the “No. of mice examined at p.m. at termination of experiment (70-75th week) with multiple lung tumours” value is 1. Under setting [3], the “No. of mice examined at p.m. at termination of experiment (70-75th week) with other tumours” value is on record as 0, the “No. of mice examined at p.m. from 50-70th week with liver tumours” value came out at 0, the “No. of mice examined at p.m. from 50-70th week with lung tumours” value stood at 0 and the “No. of mice examined at p.m. from 50-70th week with other tumours” value was 0. Also, under setting [4], the “No. of survivors at 50 weeks” value came to 19 and the “No. of survivors at 70 weeks” value was determined as 17.
